In patent US20090155209A1, “NOVEL MACROCYCLIC INHIBITORS OF HEPATITIS C VIRUS REPLICATION” (priority 2007, published 2009):

molecular target: NS3-NS4 (Hepatitis C virus genotype 1a, UniProt P27958); experiment: NS3-NS4 activity, IC50 (Example 37, Table 8); format: biochemical
Sequence (P27958 1027-1657): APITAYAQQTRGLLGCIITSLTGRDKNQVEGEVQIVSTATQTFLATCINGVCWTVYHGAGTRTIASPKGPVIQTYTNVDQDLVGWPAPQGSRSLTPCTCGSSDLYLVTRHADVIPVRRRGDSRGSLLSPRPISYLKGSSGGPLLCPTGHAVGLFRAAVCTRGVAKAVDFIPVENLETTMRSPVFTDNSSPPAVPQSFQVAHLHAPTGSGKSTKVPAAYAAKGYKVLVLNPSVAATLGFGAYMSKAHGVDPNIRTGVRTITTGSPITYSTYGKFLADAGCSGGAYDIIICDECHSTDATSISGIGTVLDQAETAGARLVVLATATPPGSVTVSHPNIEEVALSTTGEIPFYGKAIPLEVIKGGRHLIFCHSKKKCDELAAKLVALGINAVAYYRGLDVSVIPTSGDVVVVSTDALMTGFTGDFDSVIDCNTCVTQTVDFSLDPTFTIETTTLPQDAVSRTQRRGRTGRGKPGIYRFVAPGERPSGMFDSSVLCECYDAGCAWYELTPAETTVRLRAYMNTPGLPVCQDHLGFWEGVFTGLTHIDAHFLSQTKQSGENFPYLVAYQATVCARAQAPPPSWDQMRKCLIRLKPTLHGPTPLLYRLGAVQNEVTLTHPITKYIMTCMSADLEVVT
Sequence (P27958 1658-1711): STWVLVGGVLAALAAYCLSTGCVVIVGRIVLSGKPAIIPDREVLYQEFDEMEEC

CC(C)(C)OC(=O)N[C@H]1CCCCCCC[C@@H]2C[C@@]2(C(=O)NS(=O)(=O)Cc2ccccc2C(F)(F)F)NC(=O)[C@@H]2C[C@@H](OC(=O)N3Cc4cccc(F)c4C3)CN2C1=O [Compound 617] and CC(C)(C)OC(=O)N[C@H]1CCCCCCC[C@@H]2C[C@@]2(C(=O)NS(=O)(=O)Cc2ccccc2F)NC(=O)[C@@H]2C[C@@H](OC(=O)N3Cc4cccc(F)c4C3)CN2C1=O [Compound 607] cannot be ordered by IC50: < 100 nM for the first, < 100 nM for the second.

CC(C)(C)OC(=O)N[C@H]1CCCCCCC[C@@H]2C[C@@]2(C(=O)NS(=O)(=O)Cc2c(F)cccc2F)NC(=O)[C@@H]2C[C@@H](OC(=O)N3Cc4cccc(F)c4C3)CN2C1=O [Compound 621] and CC(C)(C)OC(=O)N[C@H]1CCCCCCC[C@@H]2C[C@@]2(C(=O)NS(=O)(=O)Cc2ccc(F)c(F)c2)NC(=O)[C@@H]2C[C@@H](OC(=O)N3Cc4cccc(F)c4C3)CN2C1=O [Compound 622] cannot be ordered by IC50: < 100 nM for the first, < 100 nM for the second.

Cc1ccc(CS(=O)(=O)NC(=O)[C@@]23C[C@H]2CCCCCCC[C@H](NC(=O)OC(C)(C)C)C(=O)N2C[C@H](OC(=O)N4Cc5cccc(F)c5C4)C[C@H]2C(=O)N3)cc1 [Compound 615] and CC(C)(C)OC(=O)N[C@H]1CCCCCCC[C@@H]2C[C@@]2(C(=O)NS(=O)(=O)Cc2ccc(Cl)cc2)NC(=O)[C@@H]2C[C@@H](OC(=O)N3Cc4cccc(F)c4C3)CN2C1=O [Compound 612] cannot be ordered by IC50: < 100 nM for the first, < 100 nM for the second.

CC(C)(C)OC(=O)N[C@H]1CCCCCCC[C@@H]2C[C@@]2(C(=O)NS(=O)(=O)c2cc(Cl)cs2)NC(=O)[C@@H]2C[C@@H](OC(=O)N3Cc4cccc(F)c4C3)CN2C1=O [Compound 642] and CC(C)(C)OC(=O)N[C@H]1CCCCCCC[C@@H]2C[C@@]2(C(=O)NS(=O)(=O)c2cc(Cl)c(Cl)s2)NC(=O)[C@@H]2C[C@@H](OC(=O)N3Cc4cccc(F)c4C3)CN2C1=O [Compound 643] cannot be ordered by IC50: < 100 nM for the first, < 100 nM for the second.

CC(C)(C)OC(=O)N[C@H]1CCCCC/C=C\[C@@H]2C[C@@]2(C(=O)NS(=O)(=O)c2ccc(Cl)nc2Cl)NC(=O)[C@@H]2C[C@@H](OC(=O)N3Cc4cccc(F)c4C3)CN2C1=O [Compound 531] and CC(C)(C)OC(=O)N[C@H]1CCCCC/C=C\[C@@H]2C[C@@]2(C(=O)NS(=O)(=O)c2ccc(Cl)nc2)NC(=O)[C@@H]2C[C@@H](OC(=O)N3Cc4cccc(F)c4C3)CN2C1=O [Compound 530] cannot be ordered by IC50: < 100 nM for the first, < 100 nM for the second.

CC(C)(C)OC(=O)N[C@H]1CCCCCCC[C@@H]2C[C@@]2(C(=O)NS(=O)(=O)Cc2cc(Cl)ccc2Cl)NC(=O)[C@@H]2C[C@@H](OC(=O)N3Cc4cccc(F)c4C3)CN2C1=O [Compound 625] and CC(C)(C)OC(=O)N[C@H]1CCCCCCC[C@@H]2C[C@@]2(C(=O)NS(=O)(=O)Cc2ccc(Cl)cc2Cl)NC(=O)[C@@H]2C[C@@H](OC(=O)N3Cc4cccc(F)c4C3)CN2C1=O [Compound 624] cannot be ordered by IC50: < 100 nM for the first, < 100 nM for the second.

COc1cccc(CS(=O)(=O)NC(=O)[C@@]23C[C@H]2CCCCCCC[C@H](NC(=O)OC(C)(C)C)C(=O)N2C[C@H](OC(=O)N4Cc5cccc(F)c5C4)C[C@H]2C(=O)N3)c1 [Compound 616] and Cc1cccc(CS(=O)(=O)NC(=O)[C@@]23C[C@H]2CCCCCCC[C@H](NC(=O)OC(C)(C)C)C(=O)N2C[C@H](OC(=O)N4Cc5cccc(F)c5C4)C[C@H]2C(=O)N3)c1 [Compound 614] cannot be ordered by IC50: < 100 nM for the first, < 100 nM for the second.

Cc1ccc(CS(=O)(=O)NC(=O)[C@@]23C[C@H]2CCCCCCC[C@H](NC(=O)OC(C)(C)C)C(=O)N2C[C@H](OC(=O)N4Cc5cccc(F)c5C4)C[C@H]2C(=O)N3)cc1C [Compound 630] and Cc1ccc(CS(=O)(=O)NC(=O)[C@@]23C[C@H]2CCCCCCC[C@H](NC(=O)OC(C)(C)C)C(=O)N2C[C@H](OC(=O)N4Cc5cccc(F)c5C4)C[C@H]2C(=O)N3)c(C)c1 [Compound 628] cannot be ordered by IC50: < 100 nM for the first, < 100 nM for the second.

CC(C)(C)OC(=O)N[C@H]1CCCCC/C=C\[C@@H]2C[C@@]2(C(=O)NOc2ccc(F)cc2)NC(=O)[C@@H]2C[C@@H](OC(=O)N3Cc4cccc(F)c4C3)CN2C1=O [Compound 705] and CC(C)(C)OC(=O)N[C@H]1CCCCC/C=C\[C@@H]2C[C@@]2(C(=O)NOc2cccc(Cl)c2)NC(=O)[C@@H]2C[C@@H](OC(=O)N3Cc4cccc(F)c4C3)CN2C1=O [Compound 706] cannot be ordered by IC50: < 100 nM for the first, < 100 nM for the second.

CC(C)(C)OC(=O)N[C@H]1CCCCCCC[C@@H]2C[C@@]2(C(=O)NS(=O)(=O)Cc2cccc(C(F)(F)F)c2)NC(=O)[C@@H]2C[C@@H](OC(=O)N3Cc4cccc(F)c4C3)CN2C1=O [Compound 618] and CC(C)(C)OC(=O)N[C@H]1CCCCCCC[C@@H]2C[C@@]2(C(=O)NS(=O)(=O)Cc2ccc(C(F)(F)F)cc2)NC(=O)[C@@H]2C[C@@H](OC(=O)N3Cc4cccc(F)c4C3)CN2C1=O [Compound 619] cannot be ordered by IC50: < 100 nM for the first, < 100 nM for the second.

CC(C)(C)OC(=O)N[C@H]1CCCCCCC[C@@H]2C[C@@]2(C(=O)NS(=O)(=O)c2cccnc2Cl)NC(=O)[C@@H]2C[C@@H](OC(=O)N3Cc4cccc(F)c4C3)CN2C1=O [Compound 635] and CC(C)(C)OC(=O)N[C@H]1CCCCCCC[C@@H]2C[C@@]2(C(=O)NS(=O)(=O)c2ccc(Cl)nc2)NC(=O)[C@@H]2C[C@@H](OC(=O)N3Cc4cccc(F)c4C3)CN2C1=O [Compound 636] cannot be ordered by IC50: < 100 nM for the first, < 100 nM for the second.

First: CC(C)(C)OC(=O)N[C@H]1CCCCCC2C([C@@H]3C[C@@]3(C(=O)NS(=O)(=O)C3CC3)NC(=O)[C@@H]3C[C@@H](OC(=O)N4Cc5cccc(F)c5C4)CN3C1=O)C2(Cl)Cl (some centres unmarked) [Compound 907]
Second: CC(C)(C)OC(=O)N[C@H]1CCCCCCC[C@@H]2C[C@@]2(C(=O)NS(=O)(=O)c2ccc(Cl)s2)NC(=O)[C@@H]2C[C@@H](OC(=O)N3Cc4cccc(F)c4C3)CN2C1=O [Compound 641]
The IC50 of the first is higher: 100 to 1000 nM for the first, < 100 nM for the second.

Cc1ccc(S(=O)(=O)NC(=O)[C@@]23C[C@H]2CCCCCCC[C@H](NC(=O)OC(C)(C)C)C(=O)N2C[C@H](OC(=O)N4Cc5cccc(F)c5C4)C[C@H]2C(=O)N3)s1 [Compound 644] and Cc1cc(S(=O)(=O)NC(=O)[C@@]23C[C@H]2CCCCCCC[C@H](NC(=O)OC(C)(C)C)C(=O)N2C[C@H](OC(=O)N4Cc5cccc(F)c5C4)C[C@H]2C(=O)N3)sc1C [Compound 646] cannot be ordered by IC50: < 100 nM for the first, < 100 nM for the second.

Cc1cc(S(=O)(=O)NC(=O)[C@@]23C[C@H]2CCCCCCC[C@H](NC(=O)OC(C)(C)C)C(=O)N2C[C@H](OC(=O)N4Cc5cccc(F)c5C4)C[C@H]2C(=O)N3)oc1C [Compound 640] and CC(C)(C)OC(=O)N[C@H]1CCCCCCC[C@@H]2C[C@@]2(C(=O)NS(=O)(=O)Cc2cc(F)ccc2F)NC(=O)[C@@H]2C[C@@H](OC(=O)N3Cc4cccc(F)c4C3)CN2C1=O [Compound 620] cannot be ordered by IC50: < 100 nM for the first, < 100 nM for the second.

CC(C)(C)OC(=O)N[C@H]1CCCCC/C=C\[C@@H]2C[C@@]2(C(=O)NS(=O)(=O)c2ccc(Cl)s2)NC(=O)[C@@H]2C[C@@H](OC(=O)N3Cc4cccc(F)c4C3)CN2C1=O [Compound 535] and Cc1cc(S(=O)(=O)NC(=O)[C@@]23C[C@H]2/C=C\CCCCC[C@H](NC(=O)OC(C)(C)C)C(=O)N2C[C@H](OC(=O)N4Cc5cccc(F)c5C4)C[C@H]2C(=O)N3)sc1C [Compound 540] cannot be ordered by IC50: < 100 nM for the first, < 100 nM for the second.

CC(C)(C)OC(=O)N[C@H]1CCCCCCC[C@@H]2C[C@@]2(C(=O)NS(=O)(=O)Cc2cc(C(F)(F)F)cc(C(F)(F)F)c2)NC(=O)[C@@H]2C[C@@H](OC(=O)N3Cc4cccc(F)c4C3)CN2C1=O [Compound 634] and CC(C)(C)OC(=O)N[C@H]1CCCCCCC[C@@H]2C[C@@]2(C(=O)NS(=O)(=O)Cc2cc(F)cc(F)c2)NC(=O)[C@@H]2C[C@@H](OC(=O)N3Cc4cccc(F)c4C3)CN2C1=O [Compound 623] cannot be ordered by IC50: < 100 nM for the first, < 100 nM for the second.

CC(C)(C)OC(=O)N[C@H]1CCCCCCC[C@@H]2C[C@@]2(C(=O)NS(=O)(=O)Cc2c(Cl)cccc2Cl)NC(=O)[C@@H]2C[C@@H](OC(=O)N3Cc4cccc(F)c4C3)CN2C1=O [Compound 626] and CC(C)(C)OC(=O)N[C@H]1CCCCCCC[C@@H]2C[C@@]2(C(=O)NS(=O)(=O)Cc2cccc(Cl)c2)NC(=O)[C@@H]2C[C@@H](OC(=O)N3Cc4cccc(F)c4C3)CN2C1=O [Compound 611] cannot be ordered by IC50: < 100 nM for the first, < 100 nM for the second.

CC(C)(C)OC(=O)N[C@H]1CCCCCCC[C@@H]2C[C@@]2(C(=O)NS(=O)(=O)Cc2ccc(F)cc2)NC(=O)[C@@H]2C[C@@H](OC(=O)N3Cc4cccc(F)c4C3)CN2C1=O [Compound 609] and CC(C)(C)OC(=O)N[C@H]1CCCCCCC[C@@H]2C[C@@]2(C(=O)NS(=O)(=O)Cc2cccc(F)c2)NC(=O)[C@@H]2C[C@@H](OC(=O)N3Cc4cccc(F)c4C3)CN2C1=O [Compound 608] cannot be ordered by IC50: < 100 nM for the first, < 100 nM for the second.

COc1cccc(CS(=O)(=O)NC(=O)[C@@]23C[C@H]2CCCCCCC[C@H](NC(=O)OC(C)(C)C)C(=O)N2C[C@H](OC(=O)N4Cc5cccc(F)c5C4)C[C@H]2C(=O)N3)c1OC [Compound 631] and Cc1ccccc1ONC(=O)[C@@]12C[C@H]1CCCCCCC[C@H](NC(=O)OC(C)(C)C)C(=O)N1C[C@H](OC(=O)N3Cc4cccc(F)c4C3)C[C@H]1C(=O)N2 [Compound 804] cannot be ordered by IC50: < 100 nM for the first, < 100 nM for the second.

COc1csc(S(=O)(=O)NC(=O)[C@@]23C[C@H]2CCCCCCC[C@H](NOC(=O)C(C)(C)C)C(=O)N2C[C@H](OC(=O)N4Cc5cccc(F)c5C4)C[C@H]2C(=O)N3)c1 [Compound 647] and COc1ccc(S(=O)(=O)NC(=O)[C@@]23C[C@H]2/C=C\CCCCC[C@H](NC(=O)OC(C)(C)C)C(=O)N2C[C@H](OC(=O)N4Cc5cccc(F)c5C4)C[C@H]2C(=O)N3)cn1 [Compound 532] cannot be ordered by IC50: < 100 nM for the first, < 100 nM for the second.

CC(C)(C)ONC(=O)[C@@]12C[C@H]1/C=C\CCCCC[C@H](NC(=O)OC(C)(C)C)C(=O)N1C[C@H](OC(=O)N3Cc4cccc(F)c4C3)C[C@H]1C(=O)N2 [Compound 716] and Cc1ccccc1CS(=O)(=O)NC(=O)[C@@]12C[C@H]1/C=C\CCCCC[C@H](NC(=O)OC(C)(C)C)C(=O)N1C[C@H](OC(=O)N3Cc4cccc(F)c4C3)C[C@H]1C(=O)N2 [Compound 513] cannot be ordered by IC50: < 100 nM for the first, < 100 nM for the second.

COc1cccc(CS(=O)(=O)NC(=O)[C@@]23C[C@H]2/C=C\CCCCC[C@H](NC(=O)OC(C)(C)C)C(=O)N2C[C@H](OC(=O)N4Cc5cccc(F)c5C4)C[C@H]2C(=O)N3)c1 [Compound 516] and CC(C)(C)OC(=O)N[C@H]1CCCCCC2CC2[C@@H]2C[C@@]2(C(=O)NOc2ccccc2)NC(=O)[C@@H]2C[C@@H](OC(=O)N3Cc4cccc(F)c4C3)CN2C1=O (some centres unmarked) [Compound 906] cannot be ordered by IC50: < 100 nM for the first, < 100 nM for the second.
